From article PMC11816722, “GATA3-Driven ceRNA Network in Lung Adenocarcinoma Bone Metastasis Progression and Therapeutic Implications” (Cancers, 2025)

Molecular target: T1, NPRL3 (Homo sapiens, UniProt Q12980)
T1 sequence (Q12980 1-569): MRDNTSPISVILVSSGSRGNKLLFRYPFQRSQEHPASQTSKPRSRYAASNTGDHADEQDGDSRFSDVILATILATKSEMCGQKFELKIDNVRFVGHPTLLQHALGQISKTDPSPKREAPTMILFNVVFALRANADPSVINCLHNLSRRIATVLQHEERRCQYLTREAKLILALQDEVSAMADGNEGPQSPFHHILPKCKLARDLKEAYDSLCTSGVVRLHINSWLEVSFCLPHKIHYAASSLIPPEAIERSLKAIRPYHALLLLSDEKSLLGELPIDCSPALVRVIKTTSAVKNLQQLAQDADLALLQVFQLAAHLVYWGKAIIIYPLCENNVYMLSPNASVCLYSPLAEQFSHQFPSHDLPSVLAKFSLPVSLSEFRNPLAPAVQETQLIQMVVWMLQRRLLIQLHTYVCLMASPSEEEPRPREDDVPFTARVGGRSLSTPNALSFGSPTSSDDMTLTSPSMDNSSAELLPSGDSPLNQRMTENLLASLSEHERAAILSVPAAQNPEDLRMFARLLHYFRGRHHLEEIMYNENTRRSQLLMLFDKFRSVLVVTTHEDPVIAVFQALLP
Experiment: SPR (Biacore T200, immobilized recombinant NPRL3, steady-state […] fit); supported by DARTS in A549L6 lysate
Type: binding

Kd: 11.8 µM
SMILES: O=c1[nH]nc2c3c(cccc13)N=C(CN1Cc3ccccc3C1)N2 [E7449]
